From ChEMBL document CHEMBL1126597, “Irreversible inactivation of macrophage and brain nitric oxide synthase by L-NG-methylarginine requires NADPH-dependent hydroxylation” (J Med Chem, 1993) come the findings set out here.

For the assay, the target named is T1, Nitric oxide synthase, inducible (Mus musculus) (UniProt P29477).
T1 sequence (whole entry): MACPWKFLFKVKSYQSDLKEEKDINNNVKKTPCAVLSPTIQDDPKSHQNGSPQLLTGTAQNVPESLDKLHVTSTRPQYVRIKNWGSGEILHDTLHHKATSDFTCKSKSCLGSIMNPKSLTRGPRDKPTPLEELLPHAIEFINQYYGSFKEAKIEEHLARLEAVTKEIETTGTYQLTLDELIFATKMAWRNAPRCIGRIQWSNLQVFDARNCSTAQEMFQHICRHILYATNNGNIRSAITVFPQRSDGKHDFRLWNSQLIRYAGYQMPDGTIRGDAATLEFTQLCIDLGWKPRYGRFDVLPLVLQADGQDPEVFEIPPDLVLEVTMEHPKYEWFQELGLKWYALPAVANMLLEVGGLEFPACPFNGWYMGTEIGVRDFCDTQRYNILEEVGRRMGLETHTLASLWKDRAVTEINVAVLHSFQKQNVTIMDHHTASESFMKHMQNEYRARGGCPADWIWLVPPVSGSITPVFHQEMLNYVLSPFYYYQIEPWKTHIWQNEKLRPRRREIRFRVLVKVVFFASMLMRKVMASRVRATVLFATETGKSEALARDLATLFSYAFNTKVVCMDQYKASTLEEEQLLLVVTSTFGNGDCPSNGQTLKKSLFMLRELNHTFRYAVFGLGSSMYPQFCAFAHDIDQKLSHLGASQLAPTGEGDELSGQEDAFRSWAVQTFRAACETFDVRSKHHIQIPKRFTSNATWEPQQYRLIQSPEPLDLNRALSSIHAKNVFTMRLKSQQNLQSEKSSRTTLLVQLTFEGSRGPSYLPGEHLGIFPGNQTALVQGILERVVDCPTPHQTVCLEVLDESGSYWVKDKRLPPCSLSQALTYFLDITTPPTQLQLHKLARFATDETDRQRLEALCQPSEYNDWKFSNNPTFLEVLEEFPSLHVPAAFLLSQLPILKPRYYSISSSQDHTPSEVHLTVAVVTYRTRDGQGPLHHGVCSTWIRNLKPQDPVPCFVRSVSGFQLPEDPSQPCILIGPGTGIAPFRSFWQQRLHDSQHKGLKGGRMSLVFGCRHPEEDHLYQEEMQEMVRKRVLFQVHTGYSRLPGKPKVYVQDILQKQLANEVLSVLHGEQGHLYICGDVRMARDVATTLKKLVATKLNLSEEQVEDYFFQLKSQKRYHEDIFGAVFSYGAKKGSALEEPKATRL
Description: Inhibitory against murine macrophage nitric oxide synthase (mNOS) at 10 uM.

On to `CNC(=N)NCCC[C@H](N)C(=O)O`, for which the kinact (usually the maximal first-order rate at which the target is inactivated) stood at 0.08 min⁻¹.
Next, `CN(O)C(=N)NCCCC(N)C(=O)O` (configuration not stated): 0.1 min⁻¹.
